In PubChem BioAssay (NCI):
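Step 1: Grow cells in 96-well plates. Step 2: Expose to compound for 48 hours at 5 concentrations. Step 3: Interpolate endpoints linearly; if unreached, use highest concentration. GI50: concentration for 50% inhibition of growth. TGI is the concentration that stops growth completely.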

Legend:
Assay in all cases: NCI-60 cell line screen, 48 h
[1] = test system: A498 renal
[2] = test system: HOP-92 NSCLC
[3] = test system: SR leukemia
[4] = test system: CAKI-1 renal
[5] = test system: SN12C renal
[6] = test system: EKVX NSCLC
[7] = test system: SK-OV-3 ovarian
[8] = test system: NCI-H522 lung
[9] = test system: UACC-62 melanoma
[10] = test system: 786-0 renal
[11] = test system: OVCAR-5 ovarian
[12] = test system: SNB-75 CNS
[13] = test system: COLO 205 colon
[14] = test system: SF-295 CNS
[15] = test system: KM12 colon
[16] = test system: NCI-H226 lung
[17] = test system: ACHN renal
[18] = test system: NCI/ADR-RES ovarian
[19] = test system: HCC-2998 colon
[20] = test system: IGROV1 ovarian
[21] = test system: MDA-MB-468 breast
[22] = test system: BT-549 breast
[23] = test system: MALME-3M melanoma
[24] = test system: CCRF-CEM leukemia
[25] = test system: A549 NSCLC
[26] = test system: MDA-MB-231 breast
[27] = test system: HCT-15 colon
[28] = test system: UO-31 renal
[29] = test system: LOX IMVI melanoma
[30] = test system: SK-MEL-5 melanoma
[31] = test system: PC-3 prostate
[32] = test system: MOLT-4 leukemia
[33] = test system: SK-MEL-2 melanoma
[34] = test system: SF-268 CNS
[35] = test system: HOP-62 NSCLC
[36] = test system: T-47D breast
[37] = test system: U251 CNS
[38] = test system: SK-MEL-28 melanoma
[39] = test system: HL-60(TB) leukemia
[40] = test system: TK-10 renal
[41] = test system: MDA-MB-435
[42] = test system: OVCAR-3 ovarian
[43] = test system: NCI-H23 lung
[44] = test system: RPMI-8226 leukemia
[45] = test system: SNB-19 CNS
[46] = test system: SW-620 colon
[47] = test system: OVCAR-8 ovarian
[48] = test system: K-562 leukemia
[49] = test system: UACC-257 melanoma
[50] = test system: NCI-H460 lung
[51] = test system: DU-145 prostate
[52] = test system: HT29 colon
[53] = test system: MCF7 breast
[54] = test system: HS 578T breast
[55] = test system: OVCAR-4 ovarian
[56] = test system: HCT-116 colon
[57] = test system: M14 melanoma
[58] = test system: SF-539 CNS

## Cc1cc2nc3c4ccccc4n(CC4=NCCN4)c3nc2cc1C
[1]
  GI50: 6.15 µM
  TGI: 20.9 µM
[2]
  GI50: 2.84 µM
  TGI: 17.5 µM
[3]
  GI50: 0.523 µM
  TGI: 9.37 µM
[4]
  GI50: 1.38 µM
  TGI: 11.7 µM
[5]
  GI50: 1.59 µM
  TGI: 12.2 µM
[6]
  GI50: 10.3 µM
  TGI: 22.5 µM
[7]
  GI50: 2.43 µM
  TGI: 9.95 µM
[8]
  GI50: 1.86 µM
  TGI: 15.1 µM
[9]
  GI50: 1.91 µM
  TGI: 11.8 µM
[10]
  GI50: 3.48 µM
  TGI: 13.3 µM
[11]
  GI50: 2.62 µM
  TGI: 10.6 µM
[12]
  GI50: 1.49 µM
  TGI: 10.7 µM
[13]
  GI50: 3.11 µM
  TGI: 20.2 µM
[14]
  GI50: 1.12 µM
  TGI: 10.7 µM
[15]
  GI50: 5.51 µM
  TGI: 22.6 µM
[16]
  GI50: 1.44 µM
  TGI: 5 µM
[17]
  GI50: 1.74 µM
  TGI: 5.3 µM
[18]
  GI50: 3.5 µM
  TGI: 17.8 µM
[19]
  GI50: 2.69 µM
  TGI: 15.7 µM
[20]
  GI50: 1.99 µM
  TGI: 15.4 µM
[21]
  GI50: 2.06 µM
  TGI: 7.09 µM
[22]
  GI50: 6.52 µM
  TGI: 22.7 µM
[23]
  GI50: 1.4 µM
  TGI: 2.85 µM
[24]
  GI50: 2.37 µM
  TGI: 42.2 µM
[25]
  GI50: 1.28 µM
  TGI: 16.6 µM
[26]
  GI50: 2.01 µM
  TGI: 5.72 µM
[27]
  GI50: 3.44 µM
  TGI: 15.5 µM
[28]
  GI50: 0.605 µM
  TGI: 6.49 µM
[29]
  GI50: 1.19 µM
  TGI: 2.47 µM
[30]
  GI50: 6.62 µM
  TGI: 19.2 µM
[31]
  GI50: 1.75 µM
  TGI: > 100 µM
[32]
  GI50: 1.17 µM
  TGI: 6.54 µM
[33]
  GI50: 15.9 µM
  TGI: 30.5 µM
[34]
  GI50: 4.81 µM
  TGI: 24 µM
[35]
  GI50: 2.34 µM
  TGI: 11.8 µM
[36]
  GI50: 3.07 µM
  TGI: 15.5 µM
[37]
  GI50: 1.25 µM
  TGI: 4.21 µM
[38]
  GI50: 7.93 µM
  TGI: 20.6 µM
[39]
  GI50: 3.06 µM
  TGI: 14.4 µM
[40]
  GI50: 6.35 µM
  TGI: 20.7 µM
[41]
  GI50: 3.67 µM
  TGI: 14.3 µM
[42]
  GI50: 5.89 µM
  TGI: 22.6 µM
[43]
  GI50: 2.64 µM
  TGI: 13.1 µM
[44]
  GI50: 2.55 µM
  TGI: 36 µM
[45]
  GI50: 3.21 µM
  TGI: 15.9 µM
[46]
  GI50: 0.997 µM
  TGI: 11.9 µM
[47]
  GI50: 2.53 µM
  TGI: 19.3 µM
[48]
  GI50: 1.78 µM
  TGI: > 100 µM
[49]
  GI50: 10.6 µM
  TGI: 25.3 µM
[50]
  GI50: 0.634 µM
  TGI: 1.93 µM
[51]
  GI50: 3.08 µM
  TGI: 14.4 µM
[52]
  GI50: 1.52 µM
  TGI: 3.6 µM
[53]
  GI50: 0.747 µM
  TGI: 12.5 µM
[54]
  GI50: 11.2 µM
  TGI: 29.7 µM
[55]
  GI50: 5.76 µM
  TGI: 20.8 µM
[56]
  GI50: 1.5 µM
  TGI: 6.19 µM
[57]
  GI50: 3.1 µM
  TGI: 14.1 µM
[58]
  GI50: 1.59 µM
  TGI: 3.06 µM
